According to EP2647379A1, “Combined use of a steroid sulfatase inhibitor for the treatment of endometriosis” (PregLem S.A., priority 2012, dated 2013):
Like-named read-outs stand apart in the source and are kept apart here.

What was measured:
STS [1] = biological target: T1, STS (Homo sapiens, UniProt P08842); conditions: cited from earlier work
T1 sequence (P08842 22-583): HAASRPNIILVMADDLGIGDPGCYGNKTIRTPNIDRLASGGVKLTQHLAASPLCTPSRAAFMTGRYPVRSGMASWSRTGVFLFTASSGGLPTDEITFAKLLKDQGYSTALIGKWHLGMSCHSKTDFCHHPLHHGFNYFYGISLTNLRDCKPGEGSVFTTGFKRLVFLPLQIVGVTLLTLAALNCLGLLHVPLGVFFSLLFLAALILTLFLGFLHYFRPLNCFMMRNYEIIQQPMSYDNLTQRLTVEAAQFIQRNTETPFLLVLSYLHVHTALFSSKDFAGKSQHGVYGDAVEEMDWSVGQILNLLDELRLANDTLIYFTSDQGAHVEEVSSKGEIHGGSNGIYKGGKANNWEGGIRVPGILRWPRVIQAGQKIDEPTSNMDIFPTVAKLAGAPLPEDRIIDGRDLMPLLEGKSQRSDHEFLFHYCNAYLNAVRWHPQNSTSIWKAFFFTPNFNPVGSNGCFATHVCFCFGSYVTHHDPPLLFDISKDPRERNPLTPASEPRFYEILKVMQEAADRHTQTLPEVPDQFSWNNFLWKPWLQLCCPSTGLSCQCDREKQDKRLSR

STS activity = tested on: STS activity
From the text: The above effect is confirmed on functional biomarkers of STS activity for at least 84 days. As described before, STS converts sulphate precursors of estrogens. Thus, by inhibiting STS activity a reduction in serum levels of estrone and DHEA and an increase in estrone sulphate and DHEA sulphate are expected. This effect is described by baseline corrected fold-changes of the E1-S to E1 and DHEA-S to DHEA ratios over time (study days).

[2] = Serum hormonal profile (E2, P4, T, D4A) by ELISA; type: in vivo, healthy pre-menopausal women; conditions: for mean concentration-time profiles for D4A / mean concentration-time profiles for T: after multiple dose administration; for E2 concentrations / P4 concentrations: mean concentration-time profile, suppression during the first cycle up to Day 29, normal increase on Day 43
Method: (§1) Blood samples were collected from each subject in order to determine pharmacodynamic parameters (sulfatase activity and hormonal profile).
(§2) STS activity was determined by spiking specimens with labelled EI-S and by measuring its conversion to E1 per gram protein under standardized incubation conditions using LC-MS/MS. Protein concentration was evaluated with a validated colorimetric assay (Bradford method). The serum samples for hormonal profile were analysed by specific and validated ELISA methods.

[3] = Follow-up effect on post-treatment menstruation cycles (ovarian and transvaginal ultrasound)
From the text: Menstruation cycle length was not influenced by the treatment. […] Sizes of right and left ovary differed slightly for each subject, but no clinically relevant changes were identified by the gynaecologists.

STS [4] = biological target: T1, STS; conditions: for AVG [%]: Average inhibition of Steroid Sulfatase in endometrium, Mean (SD), N = 8
Method: (§3) Blood samples were collected from each subject in order to determine pharmacodynamic parameters (sulfatase activity and hormonal profile). Ovarian and endometrium transvaginal ultrasounds throughout the study and an endometrial biopsy were performed.
(§4) The biopsy was scheduled between 5 to 8 days before the anticipated onset of the next menstrual cycle after treatment and 1 month after treatment cessation.
(§5) STS activity was determined by spiking specimens with labelled EI-S and by measuring its conversion to E1 per gram protein under standardized incubation conditions using LC-MS/MS. Protein concentration was evaluated with a validated colorimetric assay (Bradford method).

[5] = multiple doses of 4 mg E2MATE, 10 mg NETA, for 4 weeks
STS [6] = biological target: T1, STS; conditions: cited from earlier work; remark: listed apart in the source
STS [7] = biological target: T1, STS; assay: in vivo
Method: as §3, §4, §5

STS [8] = biological target: STS (Mus musculus, UniProt P50427); conditions: mice, cited from earlier work
STS (Mus musculus, UniProt P50427), sequence (P50427 23-624): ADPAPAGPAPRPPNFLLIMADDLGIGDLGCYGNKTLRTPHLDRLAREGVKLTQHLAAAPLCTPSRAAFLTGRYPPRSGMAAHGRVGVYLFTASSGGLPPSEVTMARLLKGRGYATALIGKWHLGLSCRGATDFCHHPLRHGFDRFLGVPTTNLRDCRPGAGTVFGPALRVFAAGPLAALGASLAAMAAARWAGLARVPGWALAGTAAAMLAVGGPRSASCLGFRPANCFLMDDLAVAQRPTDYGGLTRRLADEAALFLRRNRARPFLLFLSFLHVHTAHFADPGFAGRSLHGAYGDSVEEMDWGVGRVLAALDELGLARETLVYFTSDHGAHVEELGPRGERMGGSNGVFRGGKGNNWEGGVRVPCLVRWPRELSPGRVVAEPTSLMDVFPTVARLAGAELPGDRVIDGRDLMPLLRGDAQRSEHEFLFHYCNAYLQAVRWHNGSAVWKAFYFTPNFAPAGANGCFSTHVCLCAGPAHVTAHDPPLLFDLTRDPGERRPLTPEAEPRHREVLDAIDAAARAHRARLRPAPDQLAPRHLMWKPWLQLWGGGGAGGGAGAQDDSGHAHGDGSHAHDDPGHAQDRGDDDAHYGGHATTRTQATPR

STS [9] = biological target: T1, STS; conditions: in vivo
Method: as §1, §2

STS [10] = biological target: T1, STS; assay: STS activity in PBMCs (Phase I study, labelled E1-S conversion to E1, LC-MS/MS)
Method: as §1, §2

[11] = maximum during the NETA treatment period (values of days 8 to 29)
[12] = daily oral 0.5 or 1 mg/kg for 21 days, end of the treatment

**Q.** For `NS(=O)(=O)Oc1ccc2c3c(c(=O)oc2c1)CCCCC3`, which “blocking STS activity in both eutopic and ectopic tissues” value (STS [1]) is on record?
**A.** effective

**Q.** Which “Baseline relative change of the DHEA-S / DHEA [%]” value (STS activity; Day 1) does the source give for `C[C@]12CC[C@@H]3c4ccc(OS(N)(=O)=O)cc4CC[C@H]3[C@@H]1CC[C@@H]2O` [E2MATE, Estradiol-3-o-sulfamate] here?
**A.** 0%

**Q.** What about the “Baseline relative change of the E1-S / E1 [%]” value (STS activity; Day 1) of the same compound?
**A.** 0%

**Q.** And the “Baseline relative change of the DHEA-S / DHEA [%]” value (STS activity; Day 8)?
**A.** 133%

**Q.** And the “Baseline relative change of the E1-S / E1 [%]” value (STS activity; Day 8)?
**A.** 208%

**Q.** And the “Baseline relative change of the DHEA-S / DHEA [%]” value (STS activity; Day 15)?
**A.** 116%

**Q.** And the “Baseline relative change of the E1-S / E1 [%]” value (STS activity; Day 15)?
**A.** 282%

**Q.** What about the “Baseline relative change of the DHEA-S / DHEA [%]” value (STS activity; Day 22) of the same compound?
**A.** 113%

**Q.** And the “Baseline relative change of the E1-S / E1 [%]” value (STS activity; Day 22)?
**A.** 218%

**Q.** And the “Baseline relative change of the DHEA-S / DHEA [%]” value (STS activity; Day 29)?
**A.** 148%

**Q.** What about the “Baseline relative change of the E1-S / E1 [%]” value (STS activity; Day 29) of the same compound?
**A.** 194%

**Q.** What about the “Baseline relative change of the DHEA-S / DHEA [%]” value (STS activity; Day 57) of the same compound?
**A.** 195%

**Q.** And the “Baseline relative change of the E1-S / E1 [%]” value (STS activity; Day 57)?
**A.** 218%

**Q.** What about the “Baseline relative change of the DHEA-S / DHEA [%]” value (STS activity; Day 85) of the same compound?
**A.** 232%

**Q.** And the “Baseline relative change of the E1-S / E1 [%]” value (STS activity; Day 85)?
**A.** 243%

**Q.** What about the “Baseline relative change of the DHEA-S / DHEA [%]” value (STS activity; Day 113) of the same compound?
**A.** 175%

**Q.** And the “Baseline relative change of the E1-S / E1 [%]” value (STS activity; Day 113)?
**A.** 400%

**Q.** And the “DHEA-S to DHEA ratios increased” value (STS activity; [11])?
**A.** up to 265%

**Q.** What about the “baseline relative mean increases of the E1-S to E1 ratio” value (STS activity; [11]) of the same compound?
**A.** up to 282%

**Q.** And the “mean concentration-time profiles for D4A” value [2]?
**A.** No relevant differences

**Q.** What about the “mean concentration-time profiles for T” value [2] of the same compound?
**A.** No relevant differences

**Q.** What about the E2 concentrations [2] of the same compound?
**A.** Normal mean concentration-time profiles

**Q.** And the P4 concentrations [2]?
**A.** Normal mean concentration-time profiles

**Q.** What about the “effect on ovarian size” value [3] of the same compound?
**A.** no apparent effect

**Q.** And the “AVG [%]” value (STS [4])?
**A.** 66.6 (2.7) %

**Q.** What about the “AVG (average effect over time (AUC))” value (STS [4]; STS inhibition in endometrium samples) of the same compound?
**A.** 66.60%

**Q.** And the After treatment (STS [4]; STS inhibition in endometrium samples, second row of Table 2)?
**A.** 87.50%

**Q.** And the tolerability [5]?
**A.** well tolerated

**Q.** And the STS inhibitor activity (STS [6])?
**A.** active STS inhibitors

**Q.** What about the Emax (STS [7]; read-out: Emax (maximal observed effect)) of the same compound?
**A.** 91%

**Q.** And the inhibition at 4 mg (STS [7]; read-out: STS inhibition in endometrium)?
**A.** 91%

**Q.** And the “lesion weight and size” value (STS [8]; [12])?
**A.** decreased

**Q.** And the number of lesions (STS [8]; [12])?
**A.** without a reduction

**Q.** What about the “STS activity inhibition in the uterus or in induced lesions” value (STS [8]; daily oral dose, highest dose (1 mg/kg) for 21 days) of the same compound?
**A.** ≤ 36%

**Q.** With `C[C@]12CC[C@@H]3c4ccc(OS(N)(=O)=O)cc4CC[C@H]3[C@@H]1CCC2=O` [EMATE, Estrone-3-o-sulfamate] as the compound, how does the STS inhibitor activity (STS [6]) read?
**A.** active STS inhibitors

**Q.** Which “mean concentration-time profiles for D4A” value [2] does the source give for `C#C[C@]1(OC(C)=O)CC[C@H]2[C@@H]3CCC4=CC(=O)CC[C@@H]4[C@H]3CC[C@@]21C` [NETA, norethindrone acetate, reference compound] here?
**A.** No relevant differences

**Q.** And the “mean concentration-time profiles for T” value [2]?
**A.** No relevant differences

**Q.** And the E2 concentrations [2]?
**A.** suppressed

**Q.** And the P4 concentrations [2]?
**A.** suppressed

**Q.** And the “effect on ovarian size” value [3]?
**A.** no apparent effect

**Q.** What about the inhibition (STS [9]) of the same compound?
**A.** 12%

**Q.** What about the “AVG [%]” value (STS [4]) of the same compound?
**A.** 14.9 (27.0) %

**Q.** And the Emax (STS [7])?
**A.** 46.7%

**Q.** What about the average inhibition (STS [10]) of the same compound?
**A.** 4%
